Measurements reported in EP4610269A1, “UROKINASE PLASMINOGEN ACTIVATOR SURFACE RECEPTOR (UPAR) LIGANDS FOR DIAGNOSTIC OR THERAPEUTIC USE” (3B Pharmaceuticals GmbH, priority 2024, dated 2025).
Like-named read-outs stand apart in the source and are kept apart here. *1 amine or outer side, *2 acyl side, *3 side chain or, on linkers, in order; H or OH if unused. Where a SMILES comes first, the peptide text is derived from it. Bridges are numbered along the chain shown (N, C = ends). [ ]: non-standard residue; d: D form. The star is where a group is joined. Pro(trans-4-NH2) = O=C([C@@H]1C[C@@H](N[*:3])CN1[*:1])[*:2]; DOTA = O=C(O)CN1CCN(CC(=O)O)CCN(CC(=O)*)CCN(CC(=O)O)CC1; Hyp = O=C(O)[C@@H]1C[C@@H](O)CN1; 3Pal = N[C@@H](Cc1cccnc1)C(=O)O; Pentanoyl(4-Me) = CC(C)CCC(=O)*; Cit = NC(=O)NCCC[C@H](N)C(=O)O; Suc = O=C(CCC(=O)[*:2])[*:1]; Nva = CCC[C@H](N)C(=O)O; Pentanoyl = CCCCC(=O)*; AEEA = NCCOCCOCC(=O)O

What was measured:
human uPAR (uPAR-Fc) = target: T1, human uPAR (uPAR-Fc) (Homo sapiens, UniProt Q03405); assay: Surface plasmon resonance (SPR) assay, single cycle kinetics; type: binding; conditions: pKD category for uPAR SPR activity assay, uPAR-Fc on Protein A-Chip, 25°C, read-out: pKD CAT (converted)
T1 construct: comprising amino acids Leu23-Arg303 according to UniProt entry Q03405.1; purchased R&D Systems 10378-UK-100
How it was run: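 uPAR-Fc (Leu23-Arg303 extracellular domains, human IgG1 Fc) captured on Protein A chip to ~2000 RU; single-cycle kinetics at 25°C in HEPES running buffer pH 7.4 with 0.1% DMSO. KD from double-referenced sensorgrams fitted to 1:1 Langmuir model, reported as pKD.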

[1] = Plasma stability assay (mouse plasma); type: in vitro ADME; conditions: mouse plasma (sodium citrate 3.7%), 37°C, LC-MS quantification, read-out: % intact compound remaining after 6h incubation Mouse plasma
How it was run: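 Compound from a 0.5 mM DMSO stock was spiked into sodium-citrate human or mouse plasma and incubated at 37°C for 0 and 6 h in duplicate. After protein precipitation with internal standard, intact compound was quantified by UHPLC-Q-TOF MS (positive ESI) against matrix calibration, reported as % remaining after 6 h.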

T1 sequence (Q03405 23-303): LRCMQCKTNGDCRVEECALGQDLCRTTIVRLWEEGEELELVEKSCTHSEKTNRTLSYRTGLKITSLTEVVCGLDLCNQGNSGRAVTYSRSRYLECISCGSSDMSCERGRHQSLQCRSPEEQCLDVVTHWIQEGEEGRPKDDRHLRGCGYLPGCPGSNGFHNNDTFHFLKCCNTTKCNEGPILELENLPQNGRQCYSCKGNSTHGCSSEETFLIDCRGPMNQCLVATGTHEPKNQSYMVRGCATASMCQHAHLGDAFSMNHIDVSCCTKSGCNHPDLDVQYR

Row | Structure (SMILES) | Kd (human uPAR (uPAR-Fc)) [nM] | remaining at 6 h, 9.8 µM [1] [%] | Kd (human uPAR (uPAR-Fc); single cycle kinetics) [nM]
1 | CCCCC(=O)N[C@H]1CSSC[C@@H](C(N)=O)NC(=O)[C@H](CCC)NC(=O)[C@H]([C@@H](C)CC)NC(=O)[C@@H]2C[C@@H](O)CN2C(=O)[C@@H]2CCCN2C(=O)[C@H](Cc2ccccc2)NC(=O)[C@H](Cc2cccnc2)NC(=O)[C@H](CCCCNC(=O)CN2CCN(CC(=O)O)CCN(CC(=O)O)CCN(CC(=O)O)CC2)NC(=O)[C@H](CCCNC(N)=O)NC1=O [UPAR-138, Pent-[Cys-Cit-Lys(DOTA)-Mpa-Phe-Pro-Hyp-Ile-Nva-Cys]-NH2] (Pentanoyl-C[Cit]K(DOTA)[3Pal]FP[Hyp]I[Nva]C-NH2; disulfide 1-10) | < 1.58 | 91 | 
2 | CC[C@H](C)[C@@H]1NC(=O)[C@@H]2C[C@@H](O)CN2C(=O)[C@@H]2CCCN2C(=O)[C@H](Cc2ccccc2)NC(=O)[C@H](Cc2ccc(O)cc2)NC(=O)[C@H](CCC(N)=O)NC(=O)[C@H](CCCNC(N)=O)NC(=O)[C@@H](NC(=O)CCC(C)C)CSSC[C@@H](C(N)=O)NC(=O)[C@H](CC(C)C)NC1=O [UPAR-174, iHex-[Cys-Cit-Gln-Tyr-Phe-Pro-Hyp-Ile-Leu-Cys]-NH2] ({Pentanoyl(4-Me)}-C[Cit]QYFP[Hyp]ILC-NH2; disulfide 1-10) | < 1.58 | 71 | 
3 | CC[C@H](C)[C@@H]1NC(=O)[C@@H](C)NC(=O)[C@@H]2CCCN2C(=O)[C@H](Cc2ccccc2)NC(=O)[C@H](Cc2ccc(O)cc2)NC(=O)[C@H](CCCCNC(=O)CN2CCN(CC(=O)O)CCN(CC(=O)O)CCN(CC(=O)O)CC2)NC(=O)[C@H](CCCNC(N)=O)NC(=O)[C@@H](NC(=O)[C@H](CC(C)C)NC(=O)[C@H](CC(=O)O)NC(C)=O)CSSC[C@@H](C(N)=O)NC(=O)[C@H](CC(C)C)NC1=O [UPAR-189, Ac-Asp-Leu-[Cys-Cit-Lys(DOTA)-Tyr-Phe-Pro-ala-Ile-Leu-Cys]-NH2] (Ac-DLC[Cit]K(DOTA)YFP[dA]ILC-NH2; disulfide 3-12) | < 1.58 | > 95 | 
4 | CC[C@H](C)[C@@H]1NC(=O)[C@@H]2CCCN2C(=O)[C@@H]2CCCN2C(=O)[C@H](Cc2ccccc2)NC(=O)[C@H](Cc2ccc(O)cc2)NC(=O)[C@H](CCC(N)=O)NC(=O)[C@H](CCCNC(N)=O)NC(=O)[C@@H](NC(=O)[C@H](CC(C)C)NC(=O)COCCOCCNC(=O)CN2CCN(CC(=O)O)CCN(CC(=O)O)CCN(CC(=O)O)CC2)CSSC[C@@H](C(N)=O)NC(=O)[C@H](CC(C)C)NC1=O [UPAR-229, DOTA-O2Oc-Leu-[Cys-Cit-Gln-Tyr-Phe-Pro-Pro-Ile-Leu-Cys]-NHz] ({DOTA-AEEA}-LC[Cit]QYFPPILC-NH2; disulfide 2-11) | < 1.58 | 90 | 
5 | CC[C@H](C)[C@@H]1NC(=O)[C@@H](C)NC(=O)[C@@H]2CCCN2C(=O)[C@H](Cc2ccccc2)NC(=O)[C@H](Cc2ccc(O)cc2)NC(=O)[C@H](CCC(N)=O)NC(=O)[C@H](CCCNC(N)=O)NC(=O)[C@@H](NC(=O)[C@H](CC(C)C)NC(=O)COCCOCCNC(=O)CN2CCN(CC(=O)O)CCN(CC(=O)O)CCN(CC(=O)O)CC2)CSSC[C@@H](C(N)=O)NC(=O)[C@H](CC(C)C)NC1=O [UPAR-245, DOTA-O2Oc-Leu-[Cys-Cit-Gln-Tyr-Phe-Pro-ala-Ile-Leu-Cys]-NH2] ({DOTA-AEEA}-LC[Cit]QYFP[dA]ILC-NH2; disulfide 2-11) | < 1.58 | 74 | 
6 | CCCCC(=O)N[C@H]1CSSC[C@@H](C(N)=O)NC(=O)[C@H](CCC)NC(=O)[C@H]([C@@H](C)CC)NC(=O)[C@@H]2C[C@@H](O)CN2C(=O)[C@@H]2CCCN2C(=O)[C@H](Cc2ccccc2)NC(=O)[C@H](Cc2ccc(O)cc2)NC(=O)[C@H](CCCCNC(=O)CN2CCN(CC(=O)O)CCN(CC(=O)O)CCN(CC(=O)O)CC2)NC(=O)[C@H](CCCNC(N)=O)NC1=O [UPAR-261, Pent-[Cys-Cit-Lys(DOTA)-Tyr-Phe-Pro-Hyp-Ile-Nva-Cys]-NH2] (Pentanoyl-C[Cit]K(DOTA)YFP[Hyp]I[Nva]C-NH2; disulfide 1-10) | < 1.58 | 82 | 
7 | CCC[C@H](NC(=O)CCC(=O)O)C(=O)N[C@H]1CSSC[C@@H](C(N)=O)NC(=O)[C@H](CCC)NC(=O)[C@H]([C@@H](C)CC)NC(=O)[C@@H]2C[C@@H](O)CN2C(=O)[C@@H]2CCCN2C(=O)[C@H](Cc2ccccc2)NC(=O)[C@H](Cc2ccc(O)cc2)NC(=O)[C@H](CCCCNC(=O)CN2CCN(CC(=O)O)CCN(CC(=O)O)CCN(CC(=O)O)CC2)NC(=O)[C@H](CCCNC(N)=O)NC1=O [UPAR-293, HO-Succinyl-Nva-[Cys-Cit-Lys(DOTA)-Tyr-Phe-Pro-Hyp-Ile-Nva-Cys]-NH2] (Suc-[Nva]C[Cit]K(DOTA)YFP[Hyp]I[Nva]C-NH2; disulfide 2-11) | < 1.58 | > 95 | 
8 | CC[C@H](C)[C@@H]1NC(=O)[C@@H](CCCNC(=N)N)NC(=O)[C@@H]2CCCN2C(=O)[C@H](Cc2ccccc2)NC(=O)[C@H](Cc2ccc(O)cc2)NC(=O)[C@H](CCCCNC(=O)CN2CCN(CC(=O)O)CCN(CC(=O)O)CCN(CC(=O)O)CC2)NC(=O)[C@H](CCCNC(N)=O)NC(=O)[C@@H](NC(=O)[C@H](CC(C)C)NC(=O)[C@H](CC(=O)O)NC(C)=O)CSSC[C@@H](C(N)=O)NC(=O)[C@H](CC(C)C)NC1=O [UPAR-306, Ac-Asp-Leu-[Cys-Cit-Lys(DOTA)-Tyr-Phe-Pro-arg-Ile-Leu-Cys]-NH2] (Ac-DLC[Cit]K(DOTA)YFP[dR]ILC-NH2; disulfide 3-12) | < 1.58 | 95 | 
9 | CC[C@H](C)[C@@H]1NC(=O)[C@@H](C)NC(=O)[C@@H]2CCCN2C(=O)[C@H](Cc2ccccc2)NC(=O)[C@H](Cc2ccc(O)cc2)NC(=O)[C@H](CCC(N)=O)NC(=O)[C@H](CCCNC(N)=O)NC(=O)[C@@H](NC(=O)CCC(C)C)CSSC[C@@H](C(N)=O)NC(=O)[C@H](CC(C)C)NC1=O [UPAR-338, iHex-[Cys-Cit-Gln-Tyr-Phe-Pro-ala-Ile-Leu-Cys]-NH2] ({Pentanoyl(4-Me)}-C[Cit]QYFP[dA]ILC-NH2; disulfide 1-10) | < 1.58 | 73 | 
10 | CC[C@H](C)[C@@H]1NC(=O)[C@@H]2CCCN2C(=O)[C@@H]2CCCN2C(=O)[C@H](Cc2ccccc2)NC(=O)[C@H](Cc2ccc(O)cc2)NC(=O)[C@H](CCCCNC(=O)CN2CCN(CC(=O)O)CCN(CC(=O)O)CCN(CC(=O)O)CC2)NC(=O)[C@H](CCCNC(N)=O)NC(=O)[C@@H](NC(=O)CCC(C)C)CSSC[C@@H](C(N)=O)NC(=O)[C@H](CC(C)C)NC1=O [UPAR-382, iHex-[Cys-Cit-Lys(DOTA)-Tyr-Phe-Pro-Pro-Ile-Leu-Cys]-NHz] ({Pentanoyl(4-Me)}-C[Cit]K(DOTA)YFPPILC-NH2; disulfide 1-10) |  | 78 | < 1.58
11 | CC[C@H](C)[C@@H]1NC(=O)[C@@H]2C[C@@H](NC(=O)CN3CCN(CC(=O)O)CCN(CC(=O)O)CCN(CC(=O)O)CC3)CN2C(=O)[C@@H]2CCCN2C(=O)[C@H](Cc2ccccc2)NC(=O)[C@H](Cc2ccc(O)cc2)NC(=O)[C@H](CCC(N)=O)NC(=O)[C@H](CCCNC(N)=O)NC(=O)[C@@H](NC(=O)CCC(C)C)CSSC[C@@H](C(N)=O)NC(=O)[C@H](CC(C)C)NC1=O [UPAR-389, iHex-[Cys-Cit-Gln-Tyr-Phe-Pro-Tap(DOTA)-Ile-Leu-Cys]-NH2] ({Pentanoyl(4-Me)}-C[Cit]QYFP[Pro(trans-4-NH2)](DOTA)ILC-NH2; disulfide 1-10) |  | 95 | < 1.58
12 | CCCCC(=O)N[C@H]1CSSC[C@@H](C(N)=O)NC(=O)[C@H](CCC)NC(=O)[C@H]([C@@H](C)CC)NC(=O)[C@@H]2C[C@@H](O)CN2C(=O)[C@@H]2C[C@@H](O)CN2C(=O)[C@H](Cc2ccccc2)NC(=O)[C@H](Cc2ccc(O)cc2)NC(=O)[C@H](CCCCNC(=O)CN2CCN(CC(=O)O)CCN(CC(=O)O)CCN(CC(=O)O)CC2)NC(=O)[C@H](CCCNC(N)=O)NC1=O [UPAR-403, Pent-[Cys-Cit-Lys(DOTA)-Tyr-Phe-Hyp-Hyp-Ile-Nva-Cys]-NH2] (Pentanoyl-C[Cit]K(DOTA)YF[Hyp][Hyp]I[Nva]C-NH2; disulfide 1-10) |  | 87 | < 1.58
13 | CC[C@H](C)[C@@H]1NC(=O)[C@@H](C)NC(=O)[C@@H]2CCCN2C(=O)[C@H](Cc2ccccc2)NC(=O)[C@H](Cc2ccc(O)cc2)NC(=O)[C@H](CC(=O)O)NC(=O)[C@H](CCCNC(N)=O)NC(=O)[C@@H](NC(=O)CCC(C)C)CSSC[C@@H](C(N)=O)NC(=O)[C@H](CC(C)C)NC1=O [UPAR-434, iHex-[Cys-Cit-Asp-Tyr-Phe-Pro-ala-Ile-Leu-Cys]-NH2] ({Pentanoyl(4-Me)}-C[Cit]DYFP[dA]ILC-NH2; disulfide 1-10) |  | 90 | < 1.58
14 | CC[C@H](C)[C@@H]1NC(=O)[C@@H](C)NC(=O)[C@@H]2CCCN2C(=O)[C@H](Cc2ccccc2)NC(=O)[C@H](Cc2ccc(O)cc2)NC(=O)[C@H](CCC(N)=O)NC(=O)[C@H](CCCNC(N)=O)NC(=O)[C@@H](NC(=O)[C@H](CC(C)C)NC(=O)CN2CCN(CC(=O)O)CCN(CC(=O)O)CCN(CC(=O)O)CC2)CSSC[C@@H](C(N)=O)NC(=O)[C@H](CC(C)C)NC1=O [UPAR-441, DOTA-Leu-[Cys-Cit-Gln-Tyr-Phe-Pro-ala-Ile-Leu-Cys]-NH2] ({DOTA}-LC[Cit]QYFP[dA]ILC-NH2; disulfide 2-11) |  | 83 | < 1.58
